Reference: paper PMC5225183, “Fingerprinting of neurotoxic compounds using a mouse embryonic stem cell dual luminescence reporter assay” (Archives of Toxicology, 2016)
Like-named read-outs stand apart in the source and are kept apart here. Marks after values point to notes of the source that are not given here. Square brackets hold non-standard residues; d marks the D form. Peptide text beside a SMILES is read from it. * marks the point of attachment. Fmoc = O=C(OCC1c2ccccc2-c2ccccc21)*; Cha = N[C@@H](CC1CCCCC1)C(=O)O; AMC = Cc1cc(=O)oc2cc(N*)ccc12

Columns and labels:
[1] = system: Tubulin α1 (Tα1) promoter; assay: cells
From the text: (§1) Dual luciferase expressing CGR8-2Luc cells were obtained by transduction of mouse ESC CGR8 cells with the 2K7 EFS-Renilla Luciferase (RLuc)/Talpha1-Firefly Luciferase (FLuc) vector as previously described (Suter et al. [2006], [2009]); EFS corresponds to the short promoter of the eukaryotic translation elongation factor 1 alpha (EF1α), and Talpha1 to the Tubulin α1 (Tα1) promoter. Tα1 was selected as a promoter active in neurons, including early stages of neural differentiation. EF1α was originally selected to function as a constitutive promoter; however, it responds to cellular differentiation as well as to various chemicals, as previously shown (Kern et al. [2013]). Cells were cultured on 0.1 % gelatin-coated dishes in CGR8-2luc maintenance medium: BHK21 medium, supplemented with 10 % fetal calf serum, L-glutamine, non-essential amino acids, penicillin/streptomycin, and leukemia inhibitory factor (LIF). CGR8 cells were grown in a feeder-independent manner (embryonic pluripotent stem cells, ESCs) as described in protocol 1 (Fig. 1) before testing compounds of interest.
(§2) Fig. 1 Synopsis of experimental protocols. The impact of compounds on neural promoter activity (FLuc, Firefly Luciferase under the control of the Tα1 promoter), general promoter activity (RLuc, Renilla Luciferase under the control of the EF1α promoter), and amount of DNA (PI, propidium iodide fluorescence in cell homogenates) was investigated in undifferentiated mouse embryonic pluripotent stem cells (ESCs) and on ESC-derived neurons. Arrows indicate the time of measurement of the three parameters. a Protocol for testing compounds effects on ESCs. CGR8-2Luc cells were plated on gelatin-coated 96-well plates in maintenance medium (BHK21 medium containing 10 % FCS, L-glutamine, NEAA, P/S, and LIF). Twenty-four hours later, cells were exposed to compounds for forty-eight hours. b Protocol for testing compounds on ESC-derived neurons. CGR8-2Luc cells were co-cultured with MS5 cells to induce neural differentiation in DMEM medium containing 15 % KO-serum, NEAA, β-mercaptoethanol, and P/S. On day 5, cells were detached and seeded on polyornithine-coated plates in DMEM medium containing N2 supplement, bFGF, and P/S; compound exposure was from day 6 to day 8
(§3) To test compounds on ESC-derived neurons, neuronal differentiation was carried out as previously described (Suter et al. [2009]; Xu et al. [2014]). Briefly, CGR8-2Luc cells were seeded on irradiated bone marrow-derived stromal MS5 cells and cultivated for 4 days in DMEM medium containing 15 % Knock-out™ Serum Replacement, non-essential amino acids, beta-mercaptoethanol, and penicillin/streptomycin. At day 5, cells were then re-plated (3 × 10^5 cells/cm^2) on polyornithine-coated 96-well plates in N2 medium containing DMEM, N2 supplement, penicillin/streptomycin, and 10 ng/ml basic human fibroblast growth factor (bFGF) (Invitrogen). […] To assess toxicity of compounds on undifferentiated pluripotent stem cells (ESCs), CGR8-2Luc cells were plated at 45,000 cells/cm^2 on 0.1 % gelatin-coated dishes in BHK21 medium, supplemented with 10 % fetal calf serum, L-glutamine, non-essential amino acids, penicillin/streptomycin, and leukemia inhibitory factor (LIF). After 24 h, compounds were added and incubated for 48 h, before luciferase expression and PI fluorescence were analyzed. In all experiments, methylmercury was used as a positive control at a concentration of 5 µM.
(§4) Luciferase activities were measured with a Dual-Luciferase™ Reporter system kit. CGR8-2Luc ES cells were lysed in 96-well plates according to the manufacturer’s instructions. Luminescence measurements were performed on a Fluostar Optima reader. Luminescence counts were expressed as percentage of promoter activity normalized by comparison with the control wells treated by DMSO.

CGR8-2Luc ESCs = system: CGR8-2Luc ESCs
From the text: as §2, §3
(§5) After measurement of luciferase activity, DNA quantity was determined by PI assay, as previously described (Xu et al. [2014]). PI was added to cell homogenates after the luciferase test, at a final concentration of 50 µg/ml and incubated for 2 h. After incubation, fluorescence intensity was measured on a Flexstation 3 microplate reader (Excitation: 544 nm ± 15 nm; Emission: 620 nm ± 15 nm). Results are expressed as percentage of control. Propidium iodide (PI) measures total DNA content as an approximation of the cell number. A decrease in PI fluorescence was interpreted as a decrease in cell number and therefore throughout the text referred to as cytotoxicity.
(§6) Lowest adverse effect level (LOAEL) was defined as the lowest tested concentrations that lead to a statistically significant decrease for a given read-out (FLuc, RLuc, and PI) compared to baseline. “Baseline” was not in all cases defined by untreated cells, but may also refer to, e.g., a state of increased activity due to low, non-toxic compound concentrations.

ESC-derived neurons = system: ESC-derived neurons
From the text: as §2, §3, §5, §6

[2] = system: ESCs and ESC-derived neurons; assay: Dual luminescence reporter test system, all readouts in ESCs and ESC-derived neurons
From the text: as §2, with “neurons.” for “neurons. CGR8-2Luc cells were co-cultured with MS5 cells to induce neural differentiation in DMEM medium containing 15 % KO-serum, NEAA, β-mercaptoethanol, and P/S. On day 5, cells were detached and seeded on polyornithine-coated plates in DMEM medium containing N2 supplement, bFGF, and P/S; compound exposure was from day 6 to day 8”
as §3, with “At” for “To test compounds on ESC-derived neurons, neuronal differentiation was carried out as previously described (Suter et al. [2009]; Xu et al. [2014]). Briefly, CGR8-2Luc cells were seeded on irradiated bone marrow-derived stromal MS5 cells and cultivated for 4 days in DMEM medium containing 15 % Knock-out™ Serum Replacement, non-essential amino acids, beta-mercaptoethanol, and penicillin/streptomycin. At”
Luciferase activities were measured with a Dual-Luciferase™ Reporter system kit. CGR8-2Luc ES cells were lysed in 96-well plates according to the manufacturer’s instructions. Luminescence measurements were performed on a Fluostar Optima reader. Luminescence counts were expressed as percentage of promoter activity normalized by comparison with the control wells treated by DMSO. […] parameters were measured in homogenates of ESCs and in ESC-derived neurons: (1) FLuc, reflecting the activity of early neural promoter Tα1. FLuc increases during neuronal differentiation. Many neurotoxic compounds may affect FLuc expression, either through impact on neuronal differentiation, through changes of neuronal gene expression, or through killing of neurons.
as §5, with “PI” for “After measurement of luciferase activity, DNA quantity was determined by PI assay, as previously described (Xu et al. [2014]). PI”
To describe the shape of different concentration–response curves, arbitrary scores were assigned as follows: 0 for “no change,” 1 for “down-stroke,” 2 for “bimodal profile,” and 3 for “up-stroke” (Fig. S1). A curve was classified as “down-stroke” or “up-stroke” if the change in response values comparative to control was statistically significant (p value <0.05, one-way ANOVA with post hoc Dunnett) with an additional requirement of a 30 % decrease or increase of mean response value relative to controls, respectively. If the absolute change in mean response values was below 30 % the curve was classified as “no change.” A curve was classified as “bimodal” if first up-stroke and subsequently down-stroke was observed.

[3] = cited from earlier work
[4] = system: Tubulin α1 (Tα1) promoter
From the text: as §1, §2, §3, §4

EF1α promoter = system: EF1α promoter
From the text: as §1, §2, §3, §4

[5] = ESC-derived neurons, 48 h exposure
[6] = undifferentiated ESCs, 48 h exposure, PI assay (cytotoxicity)
[7] = ESC-derived neurons, 48 h exposure, PI assay (cytotoxicity)
[8] = undifferentiated ESCs, 48 h exposure, lowest tested concentration with statistically significant decrease
[9] = undifferentiated ESCs, 48 h exposure
[10] = reporter activity changes in the non-cytotoxic concentration range, highest possible number 4

Row | Molecule | LOAEL Neurons Tα1 [1, 5] | LOAEL ESC DNA (CGR8-2Luc ESCs; [6]) | LOAEL Neurons DNA (ESC-derived neurons; [7]) | Number of non-cytotoxic changes ([2]; mouse, 48 h) | Concentration in humans ([3]; ref Zimmer et al. ([2014])) | LOAEL ESC Tα1 [4, 8] | LOAEL Neurons EF1α (EF1α promoter; [5]) | LOAEL ESC EF1α (EF1α promoter; [9]) | LOAEL Neurons Tα1 ([1]; ESC-derived neurons, 48 h exposure, listed as amiodarone) | result in the dual luminescence reporter test system [2] | Number of non-cytotoxic changes [2, 10] | Concentration in humans ([3]; ref Dewland et al. ([2009])) | LOAEL Neurons Tα1 ([1]; mouse) | LOAEL ESC DNA (CGR8-2Luc ESCs; mouse) | LOAEL Neurons DNA (ESC-derived neurons; mouse) | result in the dual luminescence reporter test system ([2]; ESCs and neurons, FLuc, RLuc, PI) | LOAEL ESC Tα1 ([4]; mouse) | LOAEL ESC EF1α (EF1α promoter; mouse) | LOAEL Neurons EF1α (EF1α promoter; mouse)
1 | COCCCOc1cc(C[C@@H](C[C@H](N)[C@@H](O)C[C@H](C(=O)NCC(C)(C)C(N)=O)C(C)C)C(C)C)ccc1OC [Aliskiren] | >50 µM | >50 µM | >50 µM | 0 | 0.33^k µM | >50 µM | >50 µM | >50 µM |  |  |  |  |  |  |  |  |  |  | 
2 | CCCCc1oc2ccccc2c1C(=O)c1cc(I)c(OCCN(CC)CC)c(I)c1 [Amiodarone] | 50 µM |  |  | 1 |  |  |  |  | 5 µM |  |  |  |  |  |  |  |  |  | 
3 | CC(C1CC1)C(O)(Cn1cncn1)c1ccc(Cl)cc1 (centres unmarked) [Cyproconazole] | >50 µM | >50 µM | >50 µM | 0 |  | >50 µM | >50 µM | >50 µM |  | did not give a signal |  |  |  |  |  |  |  |  | 
4 | COc1cccc2c1C(=O)c1c(O)c3c(c(O)c1C2=O)C[C@@](O)(C(=O)CO)C[C@@H]3O[C@H]1C[C@H](N)[C@H](O)[C@H](C)O1 [Doxorubicin] | 0.005 µM | 0.005 µM | 0.005 µM | 0 |  | 0.005 µM | 0.005 µM | 0.005 µM |  | strongly decreased the neuronal and general reporter activities, as well as the cell number |  |  |  |  |  |  |  |  | 
5 | Cc1cc(=O)oc2cc(NC(=O)[C@H](CCCCN)NC(=O)[C@H](CC3CCCCC3)NC(=O)OCC3c4ccccc4-c4ccccc43)ccc12 [Galnon] (Fmoc-[Cha]-Lys-{AMC}) | 5 µM | 20 µM | >20 µM |  |  | 20 µM | 5 µM | 20 µM |  |  | 2 |  |  |  |  |  |  |  | 
6 | CC(C)Cc1ccc(C(C)C(=O)O)cc1 (centres unmarked) [Ibuprofen] | >50 µM | >50 µM | >50 µM | 0 |  | >50 µM | >50 µM | >50 µM |  | negative |  | 150^a µM |  |  |  |  |  |  | 
7 | Cc1ccc(NC(=O)c2ccc(CN3CCN(C)CC3)cc2)cc1Nc1nccc(-c2cccnc2)n1 [Imatinib] | 10 µM | >10 µM | >10 µM | 3 |  | 10 µM | 10 µM | >10 µM |  |  |  |  |  |  |  |  |  |  | 
8 | CCCc1nn(C)c2c(=O)[nH]c(-c3cc(S(=O)(=O)N4CCN(C)CC4)ccc3OCC)nc12 [Sildenafil] | >50 µM | >50 µM | >50 µM | 0 |  | >50 µM | >50 µM | >50 µM |  |  |  |  |  |  |  |  |  |  | 
9 | N[C@@H](CC(=O)N1CCn2c(nnc2C(F)(F)F)C1)Cc1cc(F)c(F)cc1F [Sitagliptin] | >50 µM | >50 µM | >50 µM | 0 | 1.9^k µM | >50 µM | >50 µM | >50 µM |  |  |  |  |  |  |  |  |  |  | 
10 | CC(C)(C)C(=O)C(Oc1ccc(Cl)cc1)n1cncn1 (centres unmarked) [Triadimefon] |  |  |  |  |  |  |  |  |  | relatively weak responses |  |  | >50 µM | >50 µM | >50 µM | potentially neurotoxic | 50 µM | >50 µM | 50 µM
11 | Exenatide | >0.02 µM | >0.02 µM | >0.02 µM |  |  | >0.02 µM | >0.02 µM | >0.02 µM |  |  | 0 |  |  |  |  |  |  |  | 
